Consider 13 compounds from ChEMBL document CHEMBL1201862, “PubChem BioAssay data set” (2004).

Molecules are shown by their SMILES. Structures can show the parent of a compound that is named as a salt. Calls of active or inactive are those of the source.

Experiment [1] concerns the target SWI/SNF-related matrix-associated actin-dependent regulator of chromatin subfamily A member 2 (Homo sapiens, UniProt P51531). Nature of the experiment: Luminescence-based cell-based high throughput dose response assay to identify activators of the function of SWI/SNF related, matrix associated, actin dependent regulator of chromatin, subfamily a, member 2 (SMARCA2, BRM). The format is functional.

A short description of experiment [2]: Counterscreen for activators of the function of SWI/SNF related, matrix associated, actin dependent regulator of chromatin, subfamily a, member 2 (SMARCA2, BRM): Luminescence-based cell-based high throughput dose response assay to identify non-selective compounds using the VP16 reporter assay. Format: functional.
Experiment [3] deals with E3 ubiquitin-protein ligase UHRF1 (Homo sapiens, UniProt Q96T88). Nature of the experiment: Counterscreen for inhibitors of 5-meCpG-binding domain protein 2 (MBD2): TRFRET-based biochemical high throughput dose response assay to identify inhibitors of binding of ubiquitin-like with PHD and ring finger domains 1 (UHRF1) to methylated oligonucleotide.
Experiment [4] has as its system HEK293. Put plainly: cells. Particulars: Homo sapiens.
Experiment [5] deals with HEK293. Nature of the experiment: cells. The settings on record: Homo sapiens. This is another data set of the same source.
The nature of experiment [6]: Dose-response inhibition of insulin secretion in a rat insulinoma line at 5 mM glucose (AID 1117331). The settings on record: INS-1E. The format is functional, cell-based.
Experiment [7] can be described thus: half-maximal inhibitory concentration for glucagon-like peptide-1 release, STC-1 cell line, dose-response (AID 1117345). The format is functional, cell-based.
Experiment [8] is described as follows: Glucagon-like peptide 1 release potency, NCI-H716 cell line, dose-response, half-maximal inhibitory concentration (AID 1117344). Format: functional, cell-based.
Experiment [9] is described as follows: Vero cell cytotoxicity, dose response, cytotoxicity control for Vif-APOBEC3G degradation inhibitor project, Vero cells (AID 1117358). The format is functional. The settings on record: Human immunodeficiency virus 1, Vero.
Experiment [10] addresses T1, Rac GTPase-activating protein 1 (Homo sapiens, UniProt Q9H0H5).
T1 sequence (Q9H0H5 whole entry): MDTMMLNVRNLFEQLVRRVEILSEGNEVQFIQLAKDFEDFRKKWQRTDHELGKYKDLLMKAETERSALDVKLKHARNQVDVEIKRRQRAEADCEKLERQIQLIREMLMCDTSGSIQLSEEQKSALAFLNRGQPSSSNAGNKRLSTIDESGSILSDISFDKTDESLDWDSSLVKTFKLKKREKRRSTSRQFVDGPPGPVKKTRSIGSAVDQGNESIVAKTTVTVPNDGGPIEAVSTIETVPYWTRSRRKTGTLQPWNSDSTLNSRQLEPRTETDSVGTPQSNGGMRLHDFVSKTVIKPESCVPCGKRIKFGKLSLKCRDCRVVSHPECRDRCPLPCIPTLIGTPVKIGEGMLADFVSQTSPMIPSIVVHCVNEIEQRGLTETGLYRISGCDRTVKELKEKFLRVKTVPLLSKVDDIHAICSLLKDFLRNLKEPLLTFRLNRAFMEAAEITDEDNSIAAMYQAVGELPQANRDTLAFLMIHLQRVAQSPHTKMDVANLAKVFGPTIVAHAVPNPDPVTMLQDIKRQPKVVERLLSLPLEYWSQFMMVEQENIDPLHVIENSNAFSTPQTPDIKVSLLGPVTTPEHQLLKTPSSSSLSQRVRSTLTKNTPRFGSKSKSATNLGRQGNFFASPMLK
Nature of the experiment: MgcRacGAP GTPase-activating activity inhibitors, confirmation, biochemical, ADP Hunter fluorescence, primary and confirmatory (AID 624330). The format is functional.

Another experiment concerns the target Protein Tat (Human immunodeficiency virus type 1 group M subtype B (isolate HXB2)(HIV-1), UniProt P04608). The format is functional.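 Note: tat binding to TAR RNA read out by fluorescence polarization.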
The target in experiment [11] is G-protein coupled receptor 183 (Homo sapiens, UniProt P32249). Put plainly: SAR confirmation of small molecule antagonists of the EBI2 receptor via a luminescent beta-arrestin assa. Format: functional.
The next experiment has as its target Nonstructural protein 1 (Influenza A virus, UniProt Q194T2). The format is functional, Influenza A virus (A/California/07/2009(H1N1)).
A further experiment deals with T2, Protein skinhead-1 (Caenorhabditis elegans, UniProt P34707).
T2 sequence (P34707 whole entry): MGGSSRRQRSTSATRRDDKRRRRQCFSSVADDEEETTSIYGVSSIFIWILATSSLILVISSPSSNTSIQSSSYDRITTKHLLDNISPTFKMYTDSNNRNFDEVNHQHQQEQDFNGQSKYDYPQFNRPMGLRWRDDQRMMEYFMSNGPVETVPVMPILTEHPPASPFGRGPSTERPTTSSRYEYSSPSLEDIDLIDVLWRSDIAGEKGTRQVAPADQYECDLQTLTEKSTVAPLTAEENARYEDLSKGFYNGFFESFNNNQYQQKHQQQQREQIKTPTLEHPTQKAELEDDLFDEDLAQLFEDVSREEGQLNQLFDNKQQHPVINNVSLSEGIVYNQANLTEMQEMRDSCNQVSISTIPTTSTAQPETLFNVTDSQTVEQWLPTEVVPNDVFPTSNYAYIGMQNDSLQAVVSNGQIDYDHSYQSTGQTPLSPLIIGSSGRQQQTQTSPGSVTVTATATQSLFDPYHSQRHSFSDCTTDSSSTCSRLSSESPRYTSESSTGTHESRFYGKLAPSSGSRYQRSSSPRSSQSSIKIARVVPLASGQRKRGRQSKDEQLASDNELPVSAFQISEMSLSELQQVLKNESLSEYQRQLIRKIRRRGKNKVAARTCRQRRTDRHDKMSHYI
The format is functional.

Experiment [12] is described as follows: HeLa cell cytotoxicity, dose response, cytotoxicity control for MgcRacGAP inhibitor project (AID 624300). Format: functional.
The nature of experiment [13]: THP-1 cell cytotoxicity, dose response, cytotoxicity control for Vif-APOBEC3G degradation inhibitor project, THP-1 cells (AID 1117359). The format is functional. The settings on record: Human immunodeficiency virus 1, THP-1.
Experiment [14] deals with Glutathione-S-transferase (Schistosoma japonicum, UniProt Q26513). Put plainly: biotin-GST/anti-GST TR-FRET signal inhibitors, dose response, artefact control for Vif-APOBEC3G degradation inhibitor project, biochemical (AID 1117362). Format: functional.
A short description of experiment [15]: inhibitors of Vif binding to APOBEC3G peptide, primary screen, biochemical, TR-FRET, GST-Vif 1-94, biotin-A3G peptide, dose response retest (AID 1117319).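 Note: TR-FRET signal of purified GST-Vif binding a biotinylated A3G peptide; inhibitors lower the FRET signal by blocking Vif and A3G binding.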 Format: functional.
Experiment [16] addresses Dual specificity tyrosine-phosphorylation-regulated kinase 1A (Rattus norvegicus, UniProt Q63470). Format: biochemical, Homo sapiens.
The next experiment addresses Paired box protein Pax-8 (Homo sapiens, UniProt Q06710). Nature of the experiment: inhibitors of PAX8-driven TPO luciferase reporter, dose response, RMG-I cells, cherry-pick (AID 687027).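 Note: luciferase reporter driven by Pax8 target thyroperoxidase promoter measured by SteadyGlo luminescence.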 Format: functional, cell-based.
Experiment [17] is described as follows: NIH-3T3 fibroblast cytotoxicity, dose response, cytotoxicity control, cell-based, fluorescence, Alamar Blue, secondary assay (AID 2327).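 Note: NIH-3T3 mouse fibroblasts cultured with fluconazole at 8 µg/mL.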 The format is functional.
The target of a further experiment is Beta-galactosidase (Escherichia coli, UniProt Q8VNN2). Put plainly: PubChem AID 485352. Format: functional.
Experiment [18] in a line: C. albicans growth with fluconazole, confirmation, fluorescence, retest (AID 2467). The format is functional, cell-based.
The next experiment concerns the target Large T antigen (Simian virus 40, UniProt P03070). Format: functional, Betapolyomavirus macacae.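 Note: Confirmatory-stage PubChem screen for compounds that inhibit SV40 T antigen.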
Experiment [19] has as its target T3, Type-1 angiotensin II receptor (Homo sapiens, UniProt P30556).
T3 sequence (P30556 whole entry): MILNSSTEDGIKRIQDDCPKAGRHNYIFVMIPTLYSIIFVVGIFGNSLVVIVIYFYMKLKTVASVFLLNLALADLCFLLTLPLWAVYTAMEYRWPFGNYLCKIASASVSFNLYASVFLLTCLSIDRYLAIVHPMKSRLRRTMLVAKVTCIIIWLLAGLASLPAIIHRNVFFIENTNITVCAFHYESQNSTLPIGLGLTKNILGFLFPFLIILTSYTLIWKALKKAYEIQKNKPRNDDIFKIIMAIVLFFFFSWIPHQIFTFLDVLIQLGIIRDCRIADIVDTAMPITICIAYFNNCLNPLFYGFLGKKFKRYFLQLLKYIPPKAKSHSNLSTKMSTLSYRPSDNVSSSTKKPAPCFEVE
Nature of the experiment: AT1 receptor antagonists, dose response, selectivity assay for APJ receptor antagonist project, cell-based, uHTS hits (AID 463214).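 Note: antagonist potency against angiotensin II stimulated AT1 response.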 Format: functional.

Experiment [20] is described as follows: growth suppression of PTEN-null colon cells, dose response, cell-based, HCT116 PTEN knockout (AID 1047).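 Note: HCT116 colon tumor cells with PTEN knocked out; cells exposed to compound for 60 hours before readout; potency for loss of cell viability measured by luminescence.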 The format is functional.
The target of experiment [21] is Bifunctional protein GlmU (Mycobacterium tuberculosis, UniProt P9WMN3). Nature of the experiment: Inhibitors of Mycobacterial Glucosamine-1-phosphate acetyl transferase (GlmU). Secondary screen. The arrangement: species or system Mycobacterium tuberculosis H37Rv.
The nature of experiment [22]: growth suppression of beta-catenin-knockout colon cells, dose response, cell-based, HCT116, human colon tumor (AID 1045).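 Note: HCT116 colon tumor cells with beta catenin knocked out; cells exposed to compound for 60 hours.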 Format: functional.
Experiment [23] addresses Glucose-6-phosphate 1-dehydrogenase (Homo sapiens, UniProt P11413). Put plainly: human G6PD enzyme inhibitors, dose response, selectivity assay for P. falciparum G6PD inhibitor project, biochemical, fluorescence (AID 504792). Format: functional.
Experiment [24] has as its target Heat shock protein HSP 90-alpha (Homo sapiens, UniProt P07900). Format: functional, organism-based.
The subject of another experiment is Vero. Put plainly: cells. Format: functional. Particulars: Chlorocebus sabaeus.
A short description of experiment [25]: P. falciparum 3D7-ScDHODH growth inhibitors, dose response, SYBR Green, dry powder samples (AID 1159570).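 Note: parasite growth measured after 72 hours of compound exposure.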 Format: functional, cell-based.
Experiment [26] is described as follows: P. falciparum Dd2 growth inhibitors, dose response, SYBR Green, cherry-picked samples (AID 1159567). The format is functional, cell-based.
Experiment [27] is described as follows: P. falciparum Dd2 growth inhibitors, dose response, SYBR Green, dry powder samples (AID 1159566).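 Note: potency for growth inhibition with lower SYBR green DNA signal.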 Format: functional, cell-based.
Experiment [28] in a line: P. falciparum ATP4 D1247Y mutant growth inhibitors, dose response, NITD609-resistant line, SYBR Green, dry powder (AID 1159571).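 Note: parasites synchronized at ring stage by sorbitol before testing.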 Format: functional, cell-based.

Chain of E3 ubiquitin-protein ligase UHRF1 (Q96T88 whole entry, the tested form may be a part): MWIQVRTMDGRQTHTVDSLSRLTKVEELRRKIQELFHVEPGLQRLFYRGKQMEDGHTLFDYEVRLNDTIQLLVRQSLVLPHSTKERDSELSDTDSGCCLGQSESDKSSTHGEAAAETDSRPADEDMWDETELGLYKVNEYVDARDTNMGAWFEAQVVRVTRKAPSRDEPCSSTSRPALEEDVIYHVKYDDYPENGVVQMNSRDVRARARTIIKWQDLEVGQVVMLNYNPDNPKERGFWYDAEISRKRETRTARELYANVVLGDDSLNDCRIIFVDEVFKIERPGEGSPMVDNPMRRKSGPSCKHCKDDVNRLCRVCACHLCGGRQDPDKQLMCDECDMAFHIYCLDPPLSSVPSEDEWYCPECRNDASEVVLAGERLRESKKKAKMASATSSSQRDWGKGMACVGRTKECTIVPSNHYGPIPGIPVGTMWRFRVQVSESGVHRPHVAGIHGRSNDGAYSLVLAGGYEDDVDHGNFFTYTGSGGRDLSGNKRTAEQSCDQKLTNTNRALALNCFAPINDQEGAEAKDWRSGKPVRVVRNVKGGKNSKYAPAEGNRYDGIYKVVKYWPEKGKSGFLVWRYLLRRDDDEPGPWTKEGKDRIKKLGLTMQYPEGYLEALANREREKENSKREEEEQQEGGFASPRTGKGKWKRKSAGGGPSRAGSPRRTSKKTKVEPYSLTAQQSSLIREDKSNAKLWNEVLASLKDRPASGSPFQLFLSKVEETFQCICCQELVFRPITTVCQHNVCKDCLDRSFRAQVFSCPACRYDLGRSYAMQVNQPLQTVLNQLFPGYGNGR
Chain of G-protein coupled receptor 183 (P32249 whole entry): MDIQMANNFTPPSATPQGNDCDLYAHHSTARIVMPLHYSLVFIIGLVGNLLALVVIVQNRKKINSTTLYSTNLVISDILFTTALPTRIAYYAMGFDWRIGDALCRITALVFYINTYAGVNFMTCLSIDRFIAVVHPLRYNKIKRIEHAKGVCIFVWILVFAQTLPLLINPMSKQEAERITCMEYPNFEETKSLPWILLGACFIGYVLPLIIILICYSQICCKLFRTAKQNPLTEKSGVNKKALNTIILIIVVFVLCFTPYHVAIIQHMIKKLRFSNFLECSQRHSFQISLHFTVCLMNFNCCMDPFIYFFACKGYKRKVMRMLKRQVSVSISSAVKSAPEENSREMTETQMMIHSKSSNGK
Chain of Protein Tat (P04608 whole entry): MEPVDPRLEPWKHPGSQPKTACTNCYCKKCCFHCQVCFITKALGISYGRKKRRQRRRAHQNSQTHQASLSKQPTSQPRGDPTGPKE
Chain of Glutathione-S-transferase (Q26513 whole entry): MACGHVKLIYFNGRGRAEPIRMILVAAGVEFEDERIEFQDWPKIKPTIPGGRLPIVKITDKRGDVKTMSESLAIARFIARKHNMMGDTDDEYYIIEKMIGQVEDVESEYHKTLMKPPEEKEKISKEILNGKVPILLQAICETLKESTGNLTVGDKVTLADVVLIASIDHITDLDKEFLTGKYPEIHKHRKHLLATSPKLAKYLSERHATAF
Chain of Large T antigen (P03070 whole entry): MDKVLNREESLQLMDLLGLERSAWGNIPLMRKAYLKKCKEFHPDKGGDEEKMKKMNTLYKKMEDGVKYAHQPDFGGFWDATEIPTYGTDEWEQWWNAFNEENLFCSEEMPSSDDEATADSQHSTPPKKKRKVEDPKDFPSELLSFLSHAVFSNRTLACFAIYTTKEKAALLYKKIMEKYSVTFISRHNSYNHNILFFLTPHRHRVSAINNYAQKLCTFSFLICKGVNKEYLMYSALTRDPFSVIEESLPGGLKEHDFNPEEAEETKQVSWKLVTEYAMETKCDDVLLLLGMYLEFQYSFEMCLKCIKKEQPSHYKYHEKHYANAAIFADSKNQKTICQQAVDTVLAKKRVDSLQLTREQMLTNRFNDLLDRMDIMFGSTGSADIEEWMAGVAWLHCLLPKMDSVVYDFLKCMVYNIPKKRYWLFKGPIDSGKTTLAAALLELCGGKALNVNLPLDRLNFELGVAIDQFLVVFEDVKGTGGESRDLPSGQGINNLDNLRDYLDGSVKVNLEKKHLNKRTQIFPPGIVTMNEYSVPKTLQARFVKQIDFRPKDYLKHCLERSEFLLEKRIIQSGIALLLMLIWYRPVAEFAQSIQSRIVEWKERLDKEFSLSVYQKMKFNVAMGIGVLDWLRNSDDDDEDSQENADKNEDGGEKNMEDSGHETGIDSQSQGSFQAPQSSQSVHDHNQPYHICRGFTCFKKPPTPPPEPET
Chain of SWI/SNF-related matrix-associated actin-dependent regulator of chromatin subfamily A member 2 (P51531 whole entry): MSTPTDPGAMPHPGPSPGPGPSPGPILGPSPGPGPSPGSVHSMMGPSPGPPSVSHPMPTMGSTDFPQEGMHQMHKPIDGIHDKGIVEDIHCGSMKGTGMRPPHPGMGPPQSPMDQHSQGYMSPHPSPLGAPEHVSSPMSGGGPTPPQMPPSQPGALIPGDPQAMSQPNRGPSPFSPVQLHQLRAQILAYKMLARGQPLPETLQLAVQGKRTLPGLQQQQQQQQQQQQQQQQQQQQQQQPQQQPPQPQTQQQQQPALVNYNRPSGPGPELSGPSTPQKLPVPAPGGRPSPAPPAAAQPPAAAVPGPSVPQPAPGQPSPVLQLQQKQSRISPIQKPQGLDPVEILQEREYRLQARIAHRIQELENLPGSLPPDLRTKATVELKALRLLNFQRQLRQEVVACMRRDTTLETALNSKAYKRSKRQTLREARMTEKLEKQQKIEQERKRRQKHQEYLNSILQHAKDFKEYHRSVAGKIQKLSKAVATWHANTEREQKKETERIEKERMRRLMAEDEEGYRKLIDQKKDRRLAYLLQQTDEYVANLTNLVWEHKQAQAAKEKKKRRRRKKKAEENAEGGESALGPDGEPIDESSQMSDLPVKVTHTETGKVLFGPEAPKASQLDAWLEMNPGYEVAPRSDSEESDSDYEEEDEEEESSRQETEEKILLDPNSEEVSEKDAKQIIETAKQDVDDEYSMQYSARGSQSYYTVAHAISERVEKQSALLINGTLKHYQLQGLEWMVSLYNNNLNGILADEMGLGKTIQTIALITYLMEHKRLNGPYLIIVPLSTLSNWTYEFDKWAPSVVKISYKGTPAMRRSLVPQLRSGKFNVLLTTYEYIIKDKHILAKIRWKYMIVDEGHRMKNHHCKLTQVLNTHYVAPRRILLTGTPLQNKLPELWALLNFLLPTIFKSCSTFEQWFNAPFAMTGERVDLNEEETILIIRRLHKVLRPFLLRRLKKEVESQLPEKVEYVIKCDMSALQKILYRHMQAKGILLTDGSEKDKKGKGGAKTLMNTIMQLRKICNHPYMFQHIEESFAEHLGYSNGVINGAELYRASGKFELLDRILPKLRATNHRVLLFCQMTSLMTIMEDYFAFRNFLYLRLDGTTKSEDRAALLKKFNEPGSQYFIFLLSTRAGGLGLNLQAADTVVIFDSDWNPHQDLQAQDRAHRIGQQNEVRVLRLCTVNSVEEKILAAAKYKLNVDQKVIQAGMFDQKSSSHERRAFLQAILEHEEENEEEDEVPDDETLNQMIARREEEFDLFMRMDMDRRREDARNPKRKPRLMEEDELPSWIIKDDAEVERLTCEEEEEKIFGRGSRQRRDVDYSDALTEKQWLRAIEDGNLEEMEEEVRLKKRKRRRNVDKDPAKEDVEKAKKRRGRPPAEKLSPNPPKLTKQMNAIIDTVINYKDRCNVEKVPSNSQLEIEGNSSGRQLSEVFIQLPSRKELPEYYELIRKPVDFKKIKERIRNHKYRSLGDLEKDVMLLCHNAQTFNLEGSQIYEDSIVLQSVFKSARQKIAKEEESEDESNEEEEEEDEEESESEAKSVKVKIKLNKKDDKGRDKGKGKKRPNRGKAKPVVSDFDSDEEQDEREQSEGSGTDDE
Chain of Paired box protein Pax-8 (Q06710 whole entry): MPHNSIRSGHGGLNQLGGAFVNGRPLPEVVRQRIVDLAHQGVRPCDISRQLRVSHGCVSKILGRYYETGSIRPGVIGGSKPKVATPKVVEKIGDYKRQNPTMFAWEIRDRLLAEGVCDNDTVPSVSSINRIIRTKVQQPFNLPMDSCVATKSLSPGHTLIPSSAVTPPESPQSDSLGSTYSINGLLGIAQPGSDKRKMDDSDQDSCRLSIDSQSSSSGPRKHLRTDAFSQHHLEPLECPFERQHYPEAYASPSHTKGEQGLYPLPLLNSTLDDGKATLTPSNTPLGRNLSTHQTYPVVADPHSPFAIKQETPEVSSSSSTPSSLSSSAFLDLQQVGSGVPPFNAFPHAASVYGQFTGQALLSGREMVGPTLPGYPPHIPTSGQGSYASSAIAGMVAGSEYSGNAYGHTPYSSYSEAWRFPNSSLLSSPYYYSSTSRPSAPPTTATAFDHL
Chain of Bifunctional protein GlmU (P9WMN3 whole entry): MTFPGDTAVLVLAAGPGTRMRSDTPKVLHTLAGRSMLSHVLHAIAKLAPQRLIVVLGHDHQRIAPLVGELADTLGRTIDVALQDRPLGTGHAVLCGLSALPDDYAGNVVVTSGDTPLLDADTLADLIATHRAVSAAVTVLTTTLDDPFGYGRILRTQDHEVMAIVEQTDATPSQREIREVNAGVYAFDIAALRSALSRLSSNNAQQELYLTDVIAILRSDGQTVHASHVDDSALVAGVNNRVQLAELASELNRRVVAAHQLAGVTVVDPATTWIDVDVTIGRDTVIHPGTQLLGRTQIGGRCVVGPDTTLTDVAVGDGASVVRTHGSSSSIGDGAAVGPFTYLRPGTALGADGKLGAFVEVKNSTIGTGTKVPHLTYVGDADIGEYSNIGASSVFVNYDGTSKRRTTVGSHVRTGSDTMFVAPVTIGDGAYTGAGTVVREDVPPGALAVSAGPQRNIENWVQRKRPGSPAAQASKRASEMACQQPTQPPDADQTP
Chain of Nonstructural protein 1 (Q194T2 whole entry): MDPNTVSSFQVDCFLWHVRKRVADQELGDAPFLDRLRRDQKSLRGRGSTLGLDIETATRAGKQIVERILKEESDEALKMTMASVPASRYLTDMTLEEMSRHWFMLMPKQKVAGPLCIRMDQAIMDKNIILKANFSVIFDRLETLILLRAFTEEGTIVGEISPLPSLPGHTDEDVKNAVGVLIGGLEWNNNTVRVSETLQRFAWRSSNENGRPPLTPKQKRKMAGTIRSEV

For the compound `Clc1ccc2c(c1)-c1ccccc1C1=NCCN12`, the half-maximal effective concentration (EC50) in experiment [1] is 4.65 µM (active); in [2], > 91.3 µM (inactive); in the experiment on HEK293 [4] it was > 59.5 µM (inactive); in the experiment on HEK293 [5] it was > 59.5 µM (inactive). Also, the IC50 in experiment [3] is > 43.8 µM (inactive).
`COc1ccc(Cl)cc1C(=O)NCCc1ccc(S(=O)(=O)NC(=O)NC2CCCCC2)cc1` [GLYBURIDE]: in experiment [6], the IC50 was 0.00808 µM (active).
On to `COc1cc2nc(N3CCN(C(=O)C4COc5ccccc5O4)CC3)nc(N)c2cc1OC` (stereo not given) [DOXAZOSIN MESYLATE], for which the IC50 was 10.7 µM (inactive) in [7] and > 40 µM (inactive) in experiment [8].
`O=C(Nc1cccc(C(F)(F)F)c1)c1cccnc1NCCc1ccccc1`: the CC50 in experiment [9] is > 40 µM (active).
`CC1CCCC(/C=N/c2ccc(O)cc2)=C1O` (stereo not given): the IC50 in experiment [10] is 26.9 µM (active); on Protein Tat, 30.8 µM (inconclusive).
Turning to `O=C(/C=C/c1ccc(Br)cc1)N1CCN(C(=O)c2cccc(B(O)O)c2)CC1`, the IC50 in experiment [11] was 28.7 nM (active).
Regarding `N=C1C=CC(=C(c2ccc(N)cc2)c2ccc(N)cc2)C=C1` [PARAROSANILINE], the 50% inhibitory concentration (IC50) was 6.87 µM (active) on Nonstructural protein 1; 13.4 µM (active) at Protein skinhead-1; 98 µM (active) in experiment [10]; > 100 µM (active) at Protein Tat; 4.08 µM (active) in experiment [14]. Moreover, the figures for the CC50 in experiment [12] and in experiment [13] were 50.3 µM (active) and 7.58 µM (active), respectively.
For `CC(C)N1CCC2(CC1)C(C#N)=C(N)NC(S)=C2C#N`, in [15], the IC50 is > 100 µM (active). Further, in experiment [9], the CC50 is > 40 µM (active).
Consider `CCOC(=O)c1ccccc1O` [ETHYL SALICYLATE], for which the IC50 was > 33.3 µM (inactive) in [6], > 40 µM (inactive) in experiment [7] and > 40 µM (inactive) in experiment [8].
For the compound `CN(C)CCNc1ccc(CO)c2sc3ccc(O)cc3c(=O)c12`, the results for the AC50 (in experiment [16]; on Paired box protein Pax-8) were 1.82 µM (active) and 5.72 µM (active), respectively. Also, in [12], the CC50 is 36.1 µM (active). Also, the IC50 in [10] was 20.2 µM (active); in [3] it was > 43.8 µM (inactive).
As for `COc1cccc(S(=O)(=O)N2CCN(C(=O)/C=C/c3ccc(F)cc3)CC2)c1`, in [11], the IC50 was 52.1 nM (active).
For `CCN(CC)C(=S)SSC(=S)N(CC)CC`, the concentration for a half-maximal effect (EC50) in experiment [17] was > 160 µM (inconclusive); on Beta-galactosidase, > 40 µM (inactive); in experiment [18], 2.43 µM (active); in experiment [20] it was 87 nM (active); in [22], 91 nM (active). Besides, the IC50 at Large T antigen was 10.7 µM (active); in experiment [19], 6.64 µM (active); in experiment [21] it was 85 µM (active); in experiment [23], > 80 µM (inactive). Moreover, the AC50 in experiment [24] is 5.18 µM (active). Moreover, the CC50 in the experiment on Vero was > 25 µM (active).
Regarding `COc1ccc2c3c([nH]c2c1)[C@H](CO)N(C(=O)C1CCOCC1)CC31CCN(Cc2nccs2)CC1`, the AC50 is 387 nM (active) in [25], 2.43 µM (active) in experiment [26], 467 nM (active) in [27] and 384 nM (active) in experiment [28].
